{"source": "patent US9149038B2", "about": "“4-amino-6-(heterocyclic)picolinates and 6-amino-2-(heterocyclic)pyrimidine-4-carboxylates and their use as herbicides” (Dow AgroSciences LLC, priority 2013, dated 2015)", "tested_on": "Direct Seeded Rice and weed species", "assay": "Postemergence herbicidal activity in direct seeded rice, visual rating after 20-22 days and probit GR20/GR50/GR80/GR90 (Table 14)", "assay_type": "in vivo", "settings": "for pest or weed control at 17.5 g/ha / pest or weed control at 35 g/ha / pest or weed control at 70 g/ha: post-emergence, 504 h, postemergence; for pest or weed control at 17.5 g/ha: 17.5 g ai/ha; for pest or weed control at 35 g/ha: 35 g ai/ha; for pest or weed control at 70 g/ha: 70 g ai/ha", "in_short": "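Visual injury scores (0 = none, 100 = complete kill) taken 20-22 days after treatment and fitted by probit analysis over several doses to give GR20/GR50/GR80/GR90. Plants at 2nd–3rd true leaf in pH about 8.1 loam–sand mix received track-sprayer applications of 187 L/ha containing 1.25% (v/v) crop oil concentrate.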", "key": {"[1]": {"settings": "BRAPP (broadleaf signalgrass, Brachiaria platyphylla), read-out: Visual Growth Reduction (%) 21 Days After Application BRAPP"}, "[2]": {"settings": "CYPDI (small-flower flatsedge, Cyperus difformis), read-out: Visual Growth Reduction (%) 21 Days After Application CYPDI"}, "[3]": {"settings": "CYPES (yellow nutsedge, Cyperus esculentus), read-out: Visual Growth Reduction (%) 21 Days After Application CYPES"}, "[4]": {"settings": "CYPIR (rice flatsedge, Cyperus iria), read-out: Visual Growth Reduction (%) 21 Days After Application CYPIR"}, "[5]": {"settings": "DIGSA (large crabgrass, Digitaria sanguinalis), read-out: Visual Growth Reduction (%) 21 Days After Application DIGSA"}, "[6]": {"settings": "ECHCG (barnyardgrass, Echinochloa crus-galli), read-out: Visual Growth Reduction (%) 21 Days After Application ECHCG"}, "[7]": {"settings": "ECHCO (junglerice, Echinochloa colonum), read-out: Visual Growth Reduction (%) 21 Days After Application ECHCO"}, "[8]": {"settings": "LEFCH (Chinese sprangletop, Leptochloa chinensis), read-out: Visual Growth Reduction (%) 21 Days After Application LEFCH"}, "[9]": {"settings": "ORYSJ (Oryza sativa, rice crop), read-out: Visual Growth Reduction (%) 21 Days After Application ORYSJ"}, "[10]": {"settings": "ORYSK (Oryza sativa, rice crop), read-out: Visual Growth Reduction (%) 21 Days After Application ORYSK"}, "[11]": {"settings": "SCPJU (Japanese bulrush, Schoenoplectus juncoides Roxb.), read-out: Visual Growth Reduction (%) 21 Days After Application SCPJU"}, "[12]": {"settings": "SEBEX (hemp sesbania, Sesbania exaltata), read-out: Visual Growth Reduction (%) 21 Days After Application SEBEX"}}, "note": "Read-outs that look alike come from different tables or passages of the source.", "data": [{"compound": "Nc1cc(-c2cc3c(cc2F)OC(F)(F)O3)nc(C(=O)O)c1Cl", "note": "[Compound 42]", "values": [{"measurement": "GR50 BRAPP", "setting": "BRAPP (Brachiaria platyphylla), probit analysis, dose for 50 percent growth reduction", "value": 0.004, "unit": "g ai/ha"}, {"measurement": "GR80 BRAPP", "setting": "BRAPP (Brachiaria platyphylla), probit analysis, dose for 80 percent growth reduction", "value": 0.2, "unit": "g ai/ha"}, {"measurement": "GR90 BRAPP", "setting": "BRAPP (Brachiaria platyphylla), probit analysis, dose for 90 percent growth reduction", "value": 1, "unit": "g ai/ha"}, {"measurement": "GR50 CYPDI", "setting": "CYPDI (Cyperus difformis), probit analysis, dose for 50 percent growth reduction", "value": 0.004, "unit": "g ai/ha"}, {"measurement": "GR80 CYPDI", "setting": "CYPDI (Cyperus difformis), probit analysis, dose for 80 percent growth reduction", "value": 0.2, "unit": "g ai/ha"}, {"measurement": "GR90 CYPDI", "setting": "CYPDI (Cyperus difformis), probit analysis, dose for 90 percent growth reduction", "value": 1, "unit": "g ai/ha"}, {"measurement": "GR50 CYPES", "setting": "CYPES (Cyperus esculentus), probit analysis, dose for 50 percent growth reduction", "value": 0.4, "unit": "g ai/ha"}, {"measurement": "GR80 CYPES", "setting": "CYPES (Cyperus esculentus), probit analysis, dose for 80 percent growth reduction", "value": 2, "unit": "g ai/ha"}, {"measurement": "GR90 CYPES", "setting": "CYPES (Cyperus esculentus), probit analysis, dose for 90 percent growth reduction", "value": 5, "unit": "g ai/ha"}, {"measurement": "GR50 CYPIR", "setting": "CYPIR (Cyperus iria), probit analysis, dose for 50 percent growth reduction", "value": 3, "unit": "g ai/ha"}, {"measurement": "GR80 CYPIR", "setting": "CYPIR (Cyperus iria), probit analysis, dose for 80 percent growth reduction", "value": 5, "unit": "g ai/ha"}, {"measurement": "GR90 CYPIR", "setting": "CYPIR (Cyperus iria), probit analysis, dose for 90 percent growth reduction", "value": 6, "unit": "g ai/ha"}, {"measurement": "GR50 DIGSA", "setting": "DIGSA (Digitaria sanguinalis), probit analysis, dose for 50 percent growth reduction", "value": 0.004, "unit": "g ai/ha"}, {"measurement": "GR80 DIGSA", "setting": "DIGSA (Digitaria sanguinalis), probit analysis, dose for 80 percent growth reduction", "value": 0.158, "unit": "g ai/ha"}, {"measurement": "GR90 DIGSA", "setting": "DIGSA (Digitaria sanguinalis), probit analysis, dose for 90 percent growth reduction", "value": 1, "unit": "g ai/ha"}, {"measurement": "GR50 ECHCG", "setting": "ECHCG (Echinochloa crus-galli), probit analysis, dose for 50 percent growth reduction", "value": 0.0001, "unit": "g ai/ha"}, {"measurement": "GR80 ECHCG", "setting": "ECHCG (Echinochloa crus-galli), probit analysis, dose for 80 percent growth reduction", "value": 0.0001, "unit": "g ai/ha"}, {"measurement": "GR90 ECHCG", "setting": "ECHCG (Echinochloa crus-galli), probit analysis, dose for 90 percent growth reduction", "value": 0.0001, "unit": "g ai/ha"}, {"measurement": "GR50 ECHCO", "setting": "ECHCO (Echinochloa colonum), probit analysis, dose for 50 percent growth reduction", "value": 0.00015, "unit": "g ai/ha"}, {"measurement": "GR80 ECHCO", "setting": "ECHCO (Echinochloa colonum), probit analysis, dose for 80 percent growth reduction", "value": 0.0207, "unit": "g ai/ha"}, {"measurement": "GR90 ECHCO", "setting": "ECHCO (Echinochloa colonum), probit analysis, dose for 90 percent growth reduction", "value": 0.268, "unit": "g ai/ha"}, {"measurement": "GR50 LEFCH", "setting": "LEFCH (Leptochloa chinensis), probit analysis, dose for 50 percent growth reduction", "value": 4, "unit": "g ai/ha"}, {"measurement": "GR80 LEFCH", "setting": "LEFCH (Leptochloa chinensis), probit analysis, dose for 80 percent growth reduction", "value": 8, "unit": "g ai/ha"}, {"measurement": "GR90 LEFCH", "setting": "LEFCH (Leptochloa chinensis), probit analysis, dose for 90 percent growth reduction", "value": 13, "unit": "g ai/ha"}, {"measurement": "GR20 ORYSJ", "setting": "ORYSJ (Oryza sativa, rice crop), probit analysis, dose for 20 percent growth reduction", "value": 1, "unit": "g ai/ha"}, {"measurement": "GR20 ORYSK", "setting": "ORYSK (Oryza sativa, rice crop), probit analysis, dose for 20 percent growth reduction", "value": 1, "unit": "g ai/ha"}, {"measurement": "GR50 SCPJU", "setting": "SCPJU (Schoenoplectus juncoides Roxb.), probit analysis, dose for 50 percent growth reduction", "value": 0.0001, "unit": "g ai/ha"}, {"measurement": "GR80 SCPJU", "setting": "SCPJU (Schoenoplectus juncoides Roxb.), probit analysis, dose for 80 percent growth reduction", "value": 0.0001, "unit": "g ai/ha"}, {"measurement": "GR90 SCPJU", "setting": "SCPJU (Schoenoplectus juncoides Roxb.), probit analysis, dose for 90 percent growth reduction", "value": 0.0001, "unit": "g ai/ha"}, {"measurement": "GR50 SEBEX", "setting": "SEBEX (Sesbania exaltata), probit analysis, dose for 50 percent growth reduction", "value": 2, "unit": "g ai/ha"}, {"measurement": "GR80 SEBEX", "setting": "SEBEX (Sesbania exaltata), probit analysis, dose for 80 percent growth reduction", "value": 5, "unit": "g ai/ha"}, {"measurement": "GR90 SEBEX", "setting": "SEBEX (Sesbania exaltata), probit analysis, dose for 90 percent growth reduction", "value": 9, "unit": "g ai/ha"}, {"measurement": "pest or weed control at 17.5 g/ha", "setting": "[1]", "value": "95 to 100", "unit": "%"}, {"measurement": "pest or weed control at 35 g/ha", "setting": "[1]", "value": "95 to 100", "unit": "%"}, {"measurement": "pest or weed control at 70 g/ha", "setting": "[1]", "value": "95 to 100", "unit": "%"}, {"measurement": "pest or weed control at 17.5 g/ha", "setting": "[2]", "value": "95 to 100", "unit": "%"}, {"measurement": "pest or weed control at 35 g/ha", "setting": "[2]", "value": "95 to 100", "unit": "%"}, {"measurement": "pest or weed control at 70 g/ha", "setting": "[2]", "value": "95 to 100", "unit": "%"}, {"measurement": "pest or weed control at 17.5 g/ha", "setting": "[3]", "value": "95 to 100", "unit": "%"}, {"measurement": "pest or weed control at 35 g/ha", "setting": "[3]", "value": "95 to 100", "unit": "%"}, {"measurement": "pest or weed control at 70 g/ha", "setting": "[3]", "value": "95 to 100", "unit": "%"}, {"measurement": "pest or weed control at 17.5 g/ha", "setting": "[4]", "value": "95 to 100", "unit": "%"}, {"measurement": "pest or weed control at 35 g/ha", "setting": "[4]", "value": "95 to 100", "unit": "%"}, {"measurement": "pest or weed control at 70 g/ha", "setting": "[4]", "value": "95 to 100", "unit": "%"}, {"measurement": "pest or weed control at 17.5 g/ha", "setting": "[5]", "value": "95 to 100", "unit": "%"}, {"measurement": "pest or weed control at 35 g/ha", "setting": "[5]", "value": "95 to 100", "unit": "%"}, {"measurement": "pest or weed control at 70 g/ha", "setting": "[5]", "value": "95 to 100", "unit": "%"}, {"measurement": "pest or weed control at 17.5 g/ha", "setting": "[6]", "value": "95 to 100", "unit": "%"}, {"measurement": "pest or weed control at 35 g/ha", "setting": "[6]", "value": "95 to 100", "unit": "%"}, {"measurement": "pest or weed control at 70 g/ha", "setting": "[6]", "value": "95 to 100", "unit": "%"}, {"measurement": "pest or weed control at 17.5 g/ha", "setting": "[7]", "value": "95 to 100", "unit": "%"}, {"measurement": "pest or weed control at 35 g/ha", "setting": "[7]", "value": "95 to 100", "unit": "%"}, {"measurement": "pest or weed control at 70 g/ha", "setting": "[7]", "value": "95 to 100", "unit": "%"}, {"measurement": "pest or weed control at 17.5 g/ha", "setting": "[8]", "value": "95 to 100", "unit": "%"}, {"measurement": "pest or weed control at 35 g/ha", "setting": "[8]", "value": "95 to 100", "unit": "%"}, {"measurement": "pest or weed control at 70 g/ha", "setting": "[8]", "value": "95 to 100", "unit": "%"}, {"measurement": "pest or weed control at 17.5 g/ha", "setting": "[9]", "value": "85 to 94", "unit": "%"}, {"measurement": "pest or weed control at 35 g/ha", "setting": "[9]", "value": "95 to 100", "unit": "%"}, {"measurement": "pest or weed control at 70 g/ha", "setting": "[9]", "value": "95 to 100", "unit": "%"}, {"measurement": "pest or weed control at 17.5 g/ha", "setting": "[10]", "value": "60 to 74", "unit": "%"}, {"measurement": "pest or weed control at 35 g/ha", "setting": "[10]", "value": "75 to 84", "unit": "%"}, {"measurement": "pest or weed control at 70 g/ha", "setting": "[10]", "value": "75 to 84", "unit": "%"}, {"measurement": "pest or weed control at 17.5 g/ha", "setting": "[11]", "value": "95 to 100", "unit": "%"}, {"measurement": "pest or weed control at 35 g/ha", "setting": "[11]", "value": "95 to 100", "unit": "%"}, {"measurement": "pest or weed control at 70 g/ha", "setting": "[11]", "value": "95 to 100", "unit": "%"}, {"measurement": "pest or weed control at 17.5 g/ha", "setting": "[12]", "value": "95 to 100", "unit": "%"}, {"measurement": "pest or weed control at 35 g/ha", "setting": "[12]", "value": "95 to 100", "unit": "%"}, {"measurement": "pest or weed control at 70 g/ha", "setting": "[12]", "value": "95 to 100", "unit": "%"}]}]}
